According to patent US9624170B2, “4-(piperrazin-1-yl)-pyrrolidin-2-one compounds as monoacylglycerol lipase (MAGL) inhibitors” (TAKEDA PHARMACEUTICAL COMPANY LIMITED, priority 2013, dated 2017):

Target: T1, human MAGL (His-hMAGL) (Homo sapiens, UniProt Q99685)
T1 construct: made in house; host or cells: Escherichia coli BL21(DE3)
T1 sequence (Q99685 1-303): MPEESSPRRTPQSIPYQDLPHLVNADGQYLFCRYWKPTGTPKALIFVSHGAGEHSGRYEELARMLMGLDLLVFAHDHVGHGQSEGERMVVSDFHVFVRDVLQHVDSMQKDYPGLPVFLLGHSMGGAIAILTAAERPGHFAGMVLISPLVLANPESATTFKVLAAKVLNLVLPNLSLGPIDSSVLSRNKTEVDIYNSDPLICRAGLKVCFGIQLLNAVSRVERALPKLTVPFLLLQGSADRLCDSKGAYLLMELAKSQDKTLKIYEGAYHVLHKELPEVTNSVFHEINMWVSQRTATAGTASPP
Experiment: Measurement of MAGL inhibitory activity by mass spectrometry
Assay type: biochemical
Details: 10 μM test compound; substrate 2-arachidonylglycerol, arachidonic acid by RapidFire-mass spectrometry
Procedure: Thereafter, to each well was added 150 μM 2-arachidonylglycerol (Tocris Bioscience) by 5 μL, and the mixture was incubated at room temperature for 10 min. Then, 2% formic acid (Wako Pure Chemical Industries, Ltd.) was added by 10 μL to discontinue the reaction. Furthermore, acetonitrile (50 μL) containing 3 μM arachidonic acid-d8 (Cayman Chemical Company) was added and the mixture was stirred. The amount of arachidonic acid in the obtained enzyme reaction mixture was calculated by measuring by RapidFire-mass spectrometry and correcting by the amount of arachidonic acid-d8. High Throughput online solid phase extraction was performed using RapidFire 300TM system (Agilent Technologies, Inc.). […] The injection needle was washed with ultrapure water (500 millisecond) and acetonitrile (500 millisecond) to minimize carry-over. […] The RapidFire300 system was controlled by RapidFire UI software version 3.6 (Agilent Technologies, Inc.). The mass spectrometry of the resultant product was performed using […] triple quadrupole mass spectrometer (AB SCIEX) equipped with an electrospray ion sauce (Turbolon SprayTM) in a negative selected reaction monitoring (SRM) mode. The conditions of SRM are shown below. The parameters of the instrument were optimized as follows: capillary temperature 600° C., ion spray voltage -4.5 kV, collision gas 8, curtain gas 15 psi, ion source gas 1 60 psi, ion source gas 2 60 psi. The mass spectrometer was controlled by AnalystTM software version 1.5.1 (AB SCIEX). The peak area integration was analyzed using RapidFire integrator software version 3.6 (Agilent Technologies, Inc.). MAGL inhibitory rate (%) was calculated according to the following calculation formula.

Row | SMILES | inhibition at 10 µM [%]
1 | Cc1ccc(-c2cccc(N3CC(N4CCN(C(=O)c5nccs5)CC4)CC3=O)c2)cc1 (centres unmarked) [Example 90, 1-(4′-methylbiphenyl-3-yl)-4-(4-(1,3-thiazol-2-ylcarbonyl)piperazin-1-yl)pyrrolidin-2-one] | 102
2 | Cc1cccc(-c2cccc(N3CC(N4CCN(C(=O)c5nccs5)CC4)CC3=O)c2)c1 (centres unmarked) [Example 91, 1-(3′-methylbiphenyl-3-yl)-4-(4-(1,3-thiazol-2-ylcarbonyl)piperazin-1-yl)pyrrolidin-2-one] | 102
3 | O=C(c1nccs1)N1CCN(C2CC(=O)N(c3cccc(-c4cccs4)c3)C2)CC1 (centres unmarked) [Example 93, 4-(4-(1,3-thiazol-2-ylcarbonyl)piperazin-1-yl)-1-(3-(2-thienyl)phenyl)pyrrolidin-2-one] | 101
4 | O=C(c1nccs1)N1CCN(C2CC(=O)N(c3cccc(-c4ccsc4)c3)C2)CC1 (centres unmarked) [Example 94, 4-(4-(1,3-thiazol-2-ylcarbonyl)piperazin-1-yl)-1-(3-(3-thienyl)phenyl)pyrrolidin-2-one] | 99
5 | CC(=O)Nc1cccc(-c2cccc(N3CC(N4CCN(C(=O)c5nccs5)CC4)CC3=O)c2)c1 (centres unmarked) [Example 95, N-(3′-(2-oxo-4-(4-(1,3-thiazol-2-ylcarbonyl)piperazin-1-yl)pyrrolidin-1-yl)biphenyl-3-yl)acetarnide] | 99
6 | O=C(c1nccs1)N1CCN(C2CC(=O)N(c3cccc(-c4ccoc4)c3)C2)CC1 (centres unmarked) [Example 96, 1-(3-(3-furyl)phenyl)-4-(4-(1,3-thiazol-2-ylcarbonyl)piperazin-1-yl)pyrrolidin-2-one] | 99
7 | CC(=O)Nc1ccc(-c2cccc(N3CC(N4CCN(C(=O)c5nccs5)CC4)CC3=O)c2)cc1 (centres unmarked) [Example 97, N-(3′-(2-oxo-4-(4-(1,3-thiazol-2-ylcarbonyl)piperazin-1-yl)pyrrolidin-1-yl)biphenyl-4-yl)acetarnide] | 97
8 | NC(=O)c1cccc(-c2cccc(N3CC(N4CCN(C(=O)c5nccs5)CC4)CC3=O)c2)c1 (centres unmarked) [Example 98, 3′-(2-oxo-4-(4-(1,3-thiazol-2-ylcarbonyl)piperazin-1-yl)pyrrolidin-1-yl)biphenyl-3-carboxamide] | 100
9 | O=C(c1nccs1)N1CCN(C2CC(=O)N(c3cccc(Cc4ccccc4)c3)C2)CC1 (centres unmarked) [Example 99, 1-(3-benzylphenyl)-4-(4-(1,3-thiazol-2-ylcarbonyl)piperazin-1-yl)pyrrolidin-2-one] | 102
10 | CS(=O)(=O)Nc1cccc(-c2cccc(N3CC(N4CCN(C(=O)c5nccs5)CC4)CC3=O)c2)c1 (centres unmarked) [Example 100, N-(3′-(2-oxo-4-(4-(1,3-thiazol-2-ylcarbonyl)piperazin-1-yl)pyrrolidin-1-yl)biphenyl-3-yl)methanesulfonamide] | 101
11 | Cn1nccc1-c1cccc(N2CC(N3CCN(C(=O)c4nccs4)CC3)CC2=O)c1 (centres unmarked) [Example 101, 1-(3-(1-methyl-1H-pyrazol-5-yl)phenyl)-4-(4-(1,3-thiazol-2-ylcarbonyl)piperazin-1-yl)pyrrolidin-2-one] | 99
12 | NS(=O)(=O)c1ccc(-c2cccc(N3CC(N4CCN(C(=O)c5nccs5)CC4)CC3=O)c2)cc1 (centres unmarked) [Example 102, 3′-(2-oxo-4-(4-(1,3-thiazol-2-ylcarbonyl)piperazin-1-yl)pyrrolidin-1-yl)biphenyl-4-sulfonamide] | 96
13 | NS(=O)(=O)c1cccc(-c2cccc(N3CC(N4CCN(C(=O)c5nccs5)CC4)CC3=O)c2)c1 (centres unmarked) [Example 103, 3′-(2-oxo-4-(4-(1,3-thiazol-2-ylcarbonyl)piperazin-1-yl)pyrrolidin-1-yl)biphenyl-3-sulfonamide] | 100
14 | CNC(=O)c1ccc(-c2cccc(N3CC(N4CCN(C(=O)c5nccs5)CC4)CC3=O)c2)cc1 (centres unmarked) [Example 104, N-methyl-3′-(2-oxo-4-(4-(1,3-thiazol-2-ylcarbonyl)piperazin-1-yl)pyrrolidin-1-yl)biphenyl-4-carboxamide] | 95
15 | O=C1Cc2cc(-c3cccc(N4CC(N5CCN(C(=O)c6nccs6)CC5)CC4=O)c3)ccc2N1 (centres unmarked) [Example 105, 5-(3-(2-oxo-4-(4-(1,3-thiazol-2-ylcarbonyl)piperazin-1-yl)pyrrolidin-1-yl)phenyl)-1,3-dihydro-2H-indol-2-one] | 101
16 | O=C(c1nccs1)N1CCN(C2CC(=O)N(c3cccc(-c4cnn5ccccc45)c3)C2)CC1 (centres unmarked) [Example 106, 1-(3-(pyrazolo[1,5-a]pyridin-3-yl)phenyl)-4-(4-(1,3-thiazol-2-ylcarbonyl)piperazin-1-yl)pyrrolidin-2-one] | 99
17 | O=C(c1nccs1)N1CCN(C2CC(=O)N(c3ccc4c(ccn4-c4cc(C(F)(F)F)ccn4)c3)C2)CC1 (centres unmarked) [Example 108, 4-(4-(1,3-thiazol-2-ylcarbonyl)piperazin-1-yl)-1-(1-(4-(trifluoromethyl)pyridin-2-yl)-1H-indol-5-yl)pyrrolidin-2-one] | 97
18 | O=C(c1nccs1)N1CCN(C2CC(=O)N(c3ccc4c(ccn4-c4ccnc(C(F)(F)F)c4)c3)C2)CC1 (centres unmarked) [Example 109, 4-(4-(1,3-Thiazol-2-ylcarbonyl)piperazin-1-yl)-1-(1-(2-(trifluoromethyl)pyridin-4-yl)-1H-indol-5-yl)pyrrolidin-2-one] | 100
19 | CS(=O)(=O)Nc1ccc(-c2cccc(N3CC(N4CCN(C(=O)c5nccs5)CC4)CC3=O)c2)cc1 (centres unmarked) [Example 110, N-(3′-(2-oxo-4-(4-(1,3-thiazol-2-ylcarbonyl)piperazin-1-yl)pyrrolidin-1-yl)biphenyl-4-yl)methanesulfonamide] | 99
20 | O=C(c1nccs1)N1CCN(C2CC(=O)N(c3ccc4c(ccn4-c4ccc(C(F)(F)F)nc4)c3)C2)CC1 (centres unmarked) [Example 111, 4-(4-(1,3-thiazol-2-ylcarbonyl)piperazin-1-yl)-1-(1-(6-(trifluoromethyl)pyridin-3-yl)-1H-indol-5-yl)pyrrolidin-2-one] | 99
21 | CNS(=O)(=O)c1ccc(-c2cccc(N3CC(N4CCN(C(=O)c5nccs5)CC4)CC3=O)c2)cc1 (centres unmarked) [Example 112, N-methyl-3′-(2-oxo-4-(4-(1,3-thiazol-2-ylcarbonyl)piperazin-1-yl)pyrrolidin-1-yl)biphenyl-4-sulfonamide] | 6
22 | O=C(c1nccs1)N1CCN(C2CC(=O)N(c3ccc4[nH]ccc4c3)C2)CC1 (centres unmarked) [Example 113, 1-(1H-indol-5-yl)-4-(4-(1,3-thiazol-2-ylcarbonyl)piperazin-1-yl)pyrrolidin-2-one] | 80
23 | O=C(c1nccs1)N1CCN(C2CC(=O)N(c3ccc4c(cnn4Cc4ccc(F)cc4)c3)C2)CC1 (centres unmarked) [Example 114, 1-(1-(4-Fluorobenzyl)-1H-indazol-5-yl)-4-(4-(1,3-thiazol-2-ylcarbonyl)piperazin-1-yl)pyrrolidin-2-one] | 98
24 | O=C(c1nccs1)N1CCN(C2CC(=O)N(c3cccc(NC4CCCCC4)c3)C2)CC1 (centres unmarked) [Example 115, 1-(3-(cyclohexylamino)phenyl)-4-(4-(1,3-thiazol-2-ylcarbonyl)piperazin-1-yl)pyrrolidin-2-one] | 97
25 | CC(=O)Nc1ccc(Nc2cccc(N3CC(N4CCN(C(=O)c5nccs5)CC4)CC3=O)c2)cc1 (centres unmarked) [Example 116, N-(4-((3-(2-oxo-4-(4-(1,3-thiazol-2-ylcarbonyl)piperazin-1-yl)pyrrolidin-1-yl)phenyl)amino)phenyl)acetamide] | 99
26 | CC(=O)N(C)c1ccc(Nc2cccc(N3CC(N4CCN(C(=O)c5nccs5)CC4)CC3=O)c2)cc1 (centres unmarked) [Example 117, N-methyl-N-(4-((3-(2-oxo-4-(4-(1,3-thiazol-2-ylcarbonyl)piperazin-1-yl)pyrrolidin-1-yl)phenyl)amino)phenyl)acetamide] | 99
27 | CC(=O)Nc1cccc(Nc2cccc(N3CC(N4CCN(C(=O)c5nccs5)CC4)CC3=O)c2)c1 (centres unmarked) [Example 118, N-(3-((3-(2-oxo-4-(4-(1,3-thiazol-2-ylcarbonyl)piperazin-1-yl)pyrrolidin-1-yl)phenyl)amino)phenyl)acetamide] | 99
28 | O=C(c1nccs1)N1CCN(C2CC(=O)N(c3cccc(Nc4ccc(N5CCCC5=O)cc4)c3)C2)CC1 (centres unmarked) [Example 119, 1-(3-((4-(2-oxopyrrolidin-1-yl)phenyl)amino)phenyl)-4-(4-(1,3-thiazol-2-ylcarbonyl)piperazin-1-yl)pyrrolidin-2-one] | 100
29 | O=C1COc2ccc(Nc3cccc(N4CC(N5CCN(C(=O)c6nccs6)CC5)CC4=O)c3)cc2N1 (centres unmarked) [Example 122, 6-((3-(2-oxo-4-(4-(1,3-thiazol-2-ylcarbonyl)piperazin-1-yl)pyrrolidin-1-yl)phenyl)amino)-2H-1,4-benzoxazin-3(4H)-one] | 98
